# Experimental data as given in patent US6696418B1, “Somatostatin antagonists and agonists that act at the SST subtype 2 receptor” (Pfizer Inc., priority 1999, dated 2004).
# Where no end group is shown, it is not given here.
# Test system: GH4C1 cells
# Assay: Rat pituitary assay for somatostatin receptor antagonists (cAMP content of GH4C1 cells)
# Type: cell-based
# Text: This assay is designed to quantitate the activity of antagonists of somatostatin that interact directly at the somatostatin receptor. The assay facilitates discovery of agents which increase growth hormone secretion by modulating the inhibitory effects of somatostatin. As aforementioned, somatostatin (also abbreviated SRIF) inhibits GH secretion in the anterior pituitary by binding to a high affinity membrane-bound (and G-protein coupled) receptor which is coupled negatively to adenyl cyclase, thereby reducing intracellular levels of cAMP that would otherwise facilitate, for example, secretion/release of GH from cytoplasmic granules. […] The screen is designed to quantitate the ability of test agents to reverse SRIF's inhibition of the elevated intracellular cAMP levels produced by VIP. […]
# In particular, cyclic AMP (cAMP) content of the pituitary cell line GH4C1 was used to differentiate somatostatin agonists from antagonists. […] This afforded a convenient way to conduct a homogenous immunoradiometric assay of cAMP content in cells lysed in situ, following incubation of the cells with test compound. cAMP content in the GH4C1 cells was determined according to the manufacturer's instructions, by comparison with standards at concentrations from 10 to 1,000 nM cAMP. […]
compound,measurement,setting,value
"C[C@H](N)C(=O)NCC(=O)N[C@H]1CSSC[C@@H](C(=O)O)NC(=O)[C@H](CO)NC(=O)[C@H]([C@@H](C)O)NC(=O)[C@H](Cc2ccccc2)NC(=O)[C@H]([C@@H](C)O)NC(=O)[C@H](CCCCN)NC(=O)[C@H](Cc2c[nH]c3ccccc23)NC(=O)[C@H](Cc2ccccc2)NC(=O)[C@H](Cc2ccccc2)NC(=O)[C@H](CC(N)=O)NC(=O)[C@H](CCCCN)NC1=O [somatostatin, somatostatin 14]",effect on VIP-elevated cAMP content of the GH4C1 cells,10 nM somatostatin 14 in the presence of 100 nM VIP,partial inhibition
"vasoactive intestinal peptide (HSDAVFTDNYTRLRKQMAVKKYLNSILN; ends and bridges not checked; UniProt P01282 125-152, looked up) [VIP]",effect on cAMP content of the GH4C1 cells,100 nM VIP,increased cAMP content
